Test results taken from US9545393B2, “Methods and compositions for treating pain” (The Board of Trustees of the Leland Stanford Junior …, priority 2012, dated 2017).
“Also recorded” adds a separate entry of the source.

Columns and labels:
[1] = test system: rats subjected to carrageenan insult to the right hind paw; experiment: Randall-Selitto paw pressure test, carrageenan-induced hyperalgesia in rats; format: in vivo, rat
Experimental: Rats. Male Wistar rats (170-190 g) were provided by Charles River Laboratories or Butantan Institute Animal Facility and housed in a temperature-controlled (22±1° C.) and light-controlled (12/12 h light/dark cycle) room. All rats were housed in their surrounding for at least 3 days. Groups of 5-6 rats were used.
Drugs Used. 0.1 ml saline (control), carrageenan (200 μg for rats, 100 μg for mice; Marine Colloids), or prostaglandin E2 (100 ng, Sigma) was administered by intraplantar injection into the right hind paw to induce hyperalgesia. These doses were chosen based on previous studies by our laboratory groups (Aley K O, et al., (2000) Chronic hypersensitivity for inflammatory nociceptor sensitization mediated by the epsilon isozyme of protein kinase C. The Journal of neuroscience: the official journal of the Society for Neuroscience 20: 4680-4685; Konno K, et al., (2008) Crotalphine, a novel potent analgesic peptide from the venom of the South American rattlesnake Crotalus durissus terrificus. Peptides 29: 1293-1304).
Alda-1 dose (2 mg/kg/per injection, dissolved in 50% PEG/50% DMSO) was established in preliminary studies and given in multiple doses due to its estimated short half-life. Alda-1 was injected subcutaneously to the dorsal side of the neck 15 minutes before carrageenan or saline, and again at 30 and 150 minutes after carrageenan, prostaglandin E2 or saline injection. One subset of animals received Alda-1 only 30 and 150 minutes after carrageenan injection. Where indicated, naloxone (1 mg/kg per injection) or vehicle (saline) was given 10 minutes prior to each Alda-1 treatment to the dorsal side of the neck.
Nociception Assessment. The experimental performer was blinded to both genotype and/or treatments. Nociceptive response was assessed by the von Frey method for mice and the Randall-Selitto method for rats immediately before and 180 minutes after carrageenan or prostaglandin E2 injection. Both mice and rats were acclimated to the testing equipment one day before baseline testing.
Randall-Selitto method: Nociceptive threshold was determined using the Randall-Selitto paw pressure test (Ugo-Basile), as previously described (Gutierrez V P, et al., (2008) Crotalphine induces potent antinociception in neuropathic pain by acting at peripheral opioid receptors. European journal of pharmacology 594: 84-92). The baseline values varied between 65-75 g of force. Animals with baseline out of this range (about 10%) were excluded prior to initiating the study in order to achieve uniform testing.

malondialdehyde (MDA) = experiment: Thiobarbituric acid-reactive substance assay (malondialdehyde) in paw homogenate; format: in vivo, rat; details: rats, 3 hours after carrageenan; P<0.05
Experimental: Thiobarbituric acid-reactive substance assay. Thiobarbituric acid-reactive substance (TBARS) was measured using an Oxi-Tek TBARS assay kit (ZeptoMetrix, Buffalo, N.Y.). In brief, 100 μL of plantar homogenates were mixed with 100 μl sodium dodecyl sulfonate solution. TBA/buffer reagent was prepared by mixing 0.5 g thiobarbituric acid with 50 ml acetic acid and 50 ml NaOH. TBA/buffer reagent (2.5 ml) was added to 200 μL sample/sodium dodecyl sulfonate mixture and incubated at 95° C. in capped tubes for 60 min. The samples were cooled to room temperature in an ice bath for 10 min and centrifuged at 3,000 g for 15 min. The supernatants were removed, and fluorescence intensity was measured in semi-microcuvettes in a fluorometer (Bio-Rad Laboratories, Hercules, Calif.). The concentration of TBARS was expressed in pmol/mg protein by interpolation from a standard curve of malondialdehyde at 0-200 pmol concentrations. The results are expressed as percent control.

[2] = test system: early growth response protein 1 (EGR1); experiment: EGR1 immunohistochemistry of L4-L6 spinal cord; format: in vivo, rat; details: rats, 3 hours after carrageenan; carrageenan alone increased ~5 fold
Experimental: Immunohistochemistry. Animals were anesthetized with ketamine (90 mg/kg) and xylazine (15 mg/kg) after 3 hours of the experimental protocol. Subsequently, animals were perfused with 4% paraformaldehyde (PFA) in 0.1 M phosphate buffer (PB, pH 7.4). Spinal cord sections (L4-L6) were removed, post-fixed for 4 h in PFA (4%), and transferred to a 30% sucrose solution in PB to ensure cryoprotection. […] The sections were immunostained for early growth response-1 gene (EGR1) expression, using a rabbit polyclonal antibody (Santa Cruz Biotechnology 1:500) in PB containing 0.3% Triton X-100 and 5% normal donkey serum. Incubations with primary antibody were conducted overnight at 24° C. The sections were then washed in PB and incubated with a biotinylated donkey anti-rabbit serum (Vector, Burlingame 1:200) in PB for 2 h at 24° C. The sections were washed again in PB and incubated with the avidin-biotin-peroxidase complex (ABC Elite, Vector Labs, USA). The sections were then reacted with 0.05% 3,3-diaminobenzidine and 0.01% hydrogen peroxide in PB. Intensification was conducted with 0.05% osmium tetroxide in water. The sections were dehydrated, cleared and mounted on a cover-slip. Normal rat serum served as control. Digital images of light microscopy were collected and cells with positive EGR were counted.

ALDH2 wild type mice = experiment: von Frey hair test, carrageenan-induced acute pain model, wild type mice; format: in vivo, mouse; details: von Frey hair (1.20 gram in FIG. 1E), Alda-1 2 mg/kg s.c.
acetaldehyde = experiment: Tissue acetaldehyde measurement in paw by LC-MS/MS; format: in vivo, rat; details: rats, Alda-1 versus carrageenan alone
Experimental: Tissue Acetaldehyde Measurements. Paw samples were quickly sealed in microcentrifuge tubes, weighed and 3 volumes (v/w) of 0.75 mg/mL Liberase T L (Roche, Indianapolis, Ind.) was added for overnight digestion at 37° C. Acetaldehyde standard solutions (100-5000 ng/mL) and the tissue samples were reacted with saturated 2,4 dinitrophenylhydrazine solution.
To establish LC-MS/MS conditions, the standard of acetaldehyde 2,4-dinitrophenyl-hydrazine (DNPH) was used. Chromatograms of standards were used to establish characteristic retention times of acetaldehyde, and verified the MS signal was linear over the range of 0.1-5 μg/mL. The acetaldehyde peak area derivatives were calculated and plotted against the concentration of the calibration standards using Analyst®1.5.1 software.
Aliquots (30 μL) were taken from each paw homogenate sample. Acetaldehyde in samples of paw homogenate was extracted by adding methanol containing 40 μg/mL DNPH (150 μL). Both unknown samples and standards were vortexed and centrifuged to separate the precipitate. Ten microliters of sample extracts were injected into LC MS/MS for analysis. Automatic peak detection, integration and data processing were performed by the AB SCIEX Analyst 1.5.1 software package. Concentrations of acetaldehyde were calculated by plotting peak area of unknown samples against a standard curve. […]

O=C(NCc1ccc2c(c1)OCO2)c1c(Cl)cccc1Cl [Alda-1, N-(1,3-benzodioxol-5-ylmethyl)-2,6-dichlorobenzamide]
Nociceptive threshold when Alda-1 is given after the insult ([1]; Alda-1 2 mg/kg s.c. only 30 and 150 minutes after carrageenan, Randall-Selitto, P<0.0001, 2 mg/kg): increased the nociceptive threshold; also recorded: significantly increased nociceptive threshold
Nociceptive threshold (FIG. 1B) ([1]; carrageenan insult, Alda-1 2 mg/kg s.c., 3 hours after insult, P<0.001): significantly increased nociceptive threshold
Increase of nociceptive threshold ([1]; carrageenan-induced model, Alda-1 2 mg/kg s.c. 15 min before and 30 and 150 min after insult, tested 3 hours after insult): 2 fold
Reduction of carrageenan-induced hyperalgesia compared with atenolol or celecoxib ([1]; comparison to previous publication using the same rat hyperalgesia model (Chacur et al, 2003)): more effective than atenolol or celecoxib
Effect of Alda-1 on nociceptive threshold in the presence of naloxone ([1]; naloxone 1 mg/kg s.c. 10 minutes before each Alda-1 treatment, Alda-1 after carrageenan): not blunted
Malondialdehyde (MDA) levels in the inflamed paw (malondialdehyde (MDA)): reduced
EGR1 levels in L4-6 spinal cord (marker of hyperalgesia) [2]: brought EGR1 levels to those seen in baseline; also recorded: brought back to basal levels
Nociceptive threshold relative to vehicle-treated mice (ALDH2 wild type mice): significantly increased pain threshold; also recorded: doubling the nociceptive threshold
Decrease of the level of acetaldehyde in paw (acetaldehyde; carrageenan-induced hyperalgesia): ~50%
Carrageenan-induced acetaldehyde levels in inflamed paw (FIG. 2F) (acetaldehyde; P<0.05): significantly reduced
